Values quoted from earlier work as cited in patent publication US20070237820A1, “Pharmaceutical formulations containing a non-steroidal antinflammatory drug and an antiulcerative drug” (Andrx Pharmaceuticals, LLC, priority 2004, published 2007).

Experiments:
[1] = patients on chronic use
[2] = NSAIDs such as diclofenac

| SMILES | patients experiencing gross bleeding and ulceration [1] | patients with side effects that require cessation of medication [2] |
| --- | --- | --- |
| CN1C(C(=O)Nc2ccccn2)=C(O)c2ccccc2S1(=O)=O [piroxicam] | up to 4% |  |
| O=C(O)Cc1ccccc1Nc1c(Cl)cccc1Cl [diclofenac] |  | about 20% |
